The values below come from ChEMBL document CHEMBL3286257, “Development of second generation EP2 antagonists with high selectivity” (Eur J Med Chem, 2014).

≈ marks a conversion by molar mass, not a printed value.

The target in data set [1] is Prostaglandin E2 receptor EP2 subtype (Homo sapiens) (UniProt P43116). Nature of the data set: Antagonist activity at EP2 receptor (unknown origin) expressed in rat C6 cells assessed as inhibition of PGE2-induced response. The format is cell-based.
Data set [2] deals with Prostaglandin E2 receptor EP4 subtype (Homo sapiens) (UniProt P35408). Nature of the data set: Antagonist activity at EP4 receptor (unknown origin) expressed in rat C6 cells assessed as inhibition of PGE2-induced response. Format: cell-based.
Sequence of Prostaglandin E2 receptor EP4 subtype (Homo sapiens) (P35408 whole entry): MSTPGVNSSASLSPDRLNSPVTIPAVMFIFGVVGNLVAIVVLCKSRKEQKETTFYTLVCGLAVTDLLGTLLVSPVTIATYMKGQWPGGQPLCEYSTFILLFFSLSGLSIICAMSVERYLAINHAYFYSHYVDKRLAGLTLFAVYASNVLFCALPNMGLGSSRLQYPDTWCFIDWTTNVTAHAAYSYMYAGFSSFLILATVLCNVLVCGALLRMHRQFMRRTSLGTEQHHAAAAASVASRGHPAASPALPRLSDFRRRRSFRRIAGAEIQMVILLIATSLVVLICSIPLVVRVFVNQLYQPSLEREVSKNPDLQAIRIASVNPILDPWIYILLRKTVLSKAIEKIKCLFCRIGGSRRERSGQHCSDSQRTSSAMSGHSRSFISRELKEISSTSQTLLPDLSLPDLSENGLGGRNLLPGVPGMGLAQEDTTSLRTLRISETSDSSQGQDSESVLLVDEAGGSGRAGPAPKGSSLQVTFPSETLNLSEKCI
For data set [3], the species on record is Homo sapiens. Nature of the data set: Selectivity index, ratio of KB for EP4 receptor (unknown origin) to KB for EP2 receptor (unknown origin).
The target in data set [4] is T1, Prostaglandin D2 receptor (Homo sapiens) (UniProt Q13258).
T1 sequence (whole entry): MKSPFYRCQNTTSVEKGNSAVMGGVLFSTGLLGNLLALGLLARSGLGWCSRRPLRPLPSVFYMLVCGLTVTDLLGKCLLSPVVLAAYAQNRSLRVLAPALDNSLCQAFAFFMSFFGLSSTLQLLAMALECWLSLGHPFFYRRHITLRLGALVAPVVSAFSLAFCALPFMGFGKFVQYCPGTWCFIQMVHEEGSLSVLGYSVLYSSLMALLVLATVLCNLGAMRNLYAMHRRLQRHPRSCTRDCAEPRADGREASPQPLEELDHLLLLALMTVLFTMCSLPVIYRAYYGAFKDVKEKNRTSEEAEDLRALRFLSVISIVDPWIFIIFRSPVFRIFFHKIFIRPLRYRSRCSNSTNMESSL
Put plainly: Antagonist activity at DP1 receptor (unknown origin) expressed in rat C6 cells by TR-FRET assay. Format: cell-based. In general terms: In TR-FRET formats the signal depends on donor and acceptor labels being close together.

For data set [5], the species on record is Homo sapiens. Nature of the data set: Selectivity index, ratio of KB for DP1 receptor (unknown origin) to KB for EP2 receptor (unknown origin).
Data set [6] concerns the target Prostacyclin receptor (Homo sapiens) (UniProt P43119). Nature of the data set: Antagonist activity at IP receptor (unknown origin) expressed in rat C6 cells by TR-FRET assay. The format is cell-based.
The species named for data set [7] is Homo sapiens. Put plainly: Selectivity index, ratio of KB for IP receptor (unknown origin) to KB for EP2 receptor (unknown origin).
The nature of data set [8]: (§1) Cytotoxicity against rat C6 cells. The format is cell-based. The note with it: C6 cells.
The next data set deals with EP2 receptor. Nature of the data set: Therapeutic index, ratio of CC50 for rat C6 cells to KB for EP2 receptor (unknown origin). The note with it: read-out: TI. The format is cell-based.
Data set [9] deals with Prostaglandin E2 receptor EP2 subtype (Homo sapiens) (UniProt P43116). Put plainly: Competitive antagonist activity at human EP2 receptor assessed as inhibition of PGE2-induced response.
Data set [10] can be described thus: Metabolic stability of the compound in human liver microsomes assessed as compound remaining at 10 uM after 15 mins. Format: ADME. The note with it: read-out: Stability. (In general: Liver microsomes are a subcellular fraction often used to study metabolism.)
A short description of data set [11]: Metabolic stability of the compound in human liver microsomes assessed as compound remaining at 10 uM after 30 mins. The format is ADME. The note with it: read-out: Stability.
Data set [12] in a line: Metabolic stability of the compound in human liver microsomes assessed as compound remaining at 10 uM after 60 mins. The format is ADME. The note with it: read-out: Stability.
Data set [13] is described as follows: Metabolic stability of the compound in mouse liver microsomes assessed as compound remaining at 10 uM after 15 mins. The format is ADME. The note with it: read-out: Stability.
A short description of data set [14]: Metabolic stability of the compound in mouse liver microsomes assessed as compound remaining at 10 uM after 30 mins. The format is ADME. The note with it: read-out: Stability.
Data set [15] can be described thus: Metabolic stability of the compound in mouse liver microsomes assessed as compound remaining at 10 uM after 60 mins. Format: ADME. The note with it: read-out: Stability.
Data set [16] in a line: Aqueous solubility of the compound by nephelometry method. The note with it: buffer. Format: physicochemical.
A short description of data set [17]: Cmax in C57Bl/6 mouse at 5 mg/kg, ip. Further details: dose 5 mg/kg, route intraperitoneal. The note with it: in vivo. The format is ADME, organism-based.
Data set [18] in a line: AUClast in C57Bl/6 mouse at 5 mg/kg, ip. The format is ADME, organism-based. Set-up: time 0 - last, dose 5 mg/kg, route intraperitoneal. The note with it: plasma.
Data set [19] can be described thus: AUC (infinity) in C57Bl/6 mouse at 5 mg/kg, ip. Further details: time infinity, dose 5 mg/kg, route intraperitoneal. The format is ADME, organism-based. The note with it: plasma.
The nature of data set [20]: Terminal half life in C57Bl/6 mouse at 5 mg/kg, ip. The format is ADME, organism-based. Set-up: dose 5 mg/kg, route intraperitoneal. The note with it: in vivo, read-out: beta t1/2 (converted).
Data set [21] is described as follows: Cmax in C57Bl/6 mouse at 10 mg/kg, po. The format is ADME, organism-based. Further details: dose 10 mg/kg, route oral. The note with it: in vivo.
The test system of another data set is C6. Described as §1. The format is cell-based. The note with it: c6.

Sequence of Prostaglandin E2 receptor EP2 subtype (Homo sapiens) (P43116 whole entry): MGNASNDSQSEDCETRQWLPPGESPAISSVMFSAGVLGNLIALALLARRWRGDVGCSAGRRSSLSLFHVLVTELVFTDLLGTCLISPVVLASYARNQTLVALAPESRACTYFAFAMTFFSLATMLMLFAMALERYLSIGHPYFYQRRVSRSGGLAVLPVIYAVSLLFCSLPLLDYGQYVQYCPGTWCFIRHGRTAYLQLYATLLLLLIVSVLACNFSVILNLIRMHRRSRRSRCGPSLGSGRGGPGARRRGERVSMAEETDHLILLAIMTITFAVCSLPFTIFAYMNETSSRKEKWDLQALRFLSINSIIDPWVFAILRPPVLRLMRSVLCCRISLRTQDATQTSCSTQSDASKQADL
Sequence of Prostacyclin receptor (Homo sapiens) (P43119 whole entry): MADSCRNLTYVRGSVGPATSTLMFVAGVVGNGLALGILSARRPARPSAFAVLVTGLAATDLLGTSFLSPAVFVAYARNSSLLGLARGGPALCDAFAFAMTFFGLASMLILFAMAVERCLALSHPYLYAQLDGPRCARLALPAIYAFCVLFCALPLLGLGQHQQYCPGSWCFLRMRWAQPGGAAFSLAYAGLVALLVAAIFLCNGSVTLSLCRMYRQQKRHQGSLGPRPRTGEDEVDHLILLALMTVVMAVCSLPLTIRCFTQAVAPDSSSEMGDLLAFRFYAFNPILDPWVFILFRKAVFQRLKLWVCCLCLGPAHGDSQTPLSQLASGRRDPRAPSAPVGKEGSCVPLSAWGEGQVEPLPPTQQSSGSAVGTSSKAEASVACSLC

One may read the Kb as the equilibrium dissociation constant of an antagonist, usually derived from a functional assay. In general, CC50 refers to the concentration giving 50% cytotoxicity. `Cc1cc2ccccc2n1CCNC(=O)c1ccc(N2CCOCC2)c(F)c1`: the Kb was 0.0257 µM in [1], 14.5 µM in [2], 2.2 µM in data set [4] and 5.6 µM in data set [6]. Moreover, the Ratio in the data set filed under Homo sapiens [3] is 565; in the data set filed under Homo sapiens [5] it was 85; in the data set filed under Homo sapiens [7], 217. The CC50 in [8] is greater than 500 µM. In addition, the selectivity ratio with EP2 receptor is greater than 19400.
As a reminder, the kinetic solubility is solubility judged after dilution from a stock solution rather than from solid. `CCN(CC)c1ccc(C(=O)NCCc2c(C)[nH]c3ccccc23)cc1`: the Kb in data set [1] amounted to 0.0069 µM; in [2], 48 µM; in [4], 9.48 µM; in data set [9] it was 0.0163 µM. For the same compound, the Ratio was determined as 6940 in the data set filed under Homo sapiens [3] and 1370 in the data set listed under Homo sapiens [5]. The CC50 in [8] was greater than 500 µM. Also, the selectivity ratio with EP2 receptor was greater than 72500. For the same compound, the remaining at […], 10 µM was 40% in data set [10] and 34% in [13]. Besides, the values for the remaining at 0.5 h, 10 µM in [11] and in [14] were 20% and 19%, respectively. The remaining at 1 h, 10 µM in data set [12] and in data set [15] was 5% throughout. Further, the solubility (kinetic) in [16] is less than 25 µM.
A word on the Cmax: it is the highest concentration seen after dosing. For orientation: AUC(0-t) means the area under the concentration-time curve up to a stated or last time point. Higher therefore signals high exposure. Broadly, the AUC(0-inf) is total exposure, with the tail of the curve extrapolated. A low value points to less exposure. Turning to `Cc1cc2ccccc2n1CCNC(=O)c1ccc(-c2nnn[nH]2)cc1`, the values for the Kb in data set [4] and in [9] were 0.66 µM and 0.0164 µM, respectively. The compound also returned a CC50 in [8] greater than 300 µM. In addition, the remaining at […], 10 µM in [10] worked out at 96%; in data set [13], 85%. Besides, the remaining at 0.5 h, 10 µM in data set [11] stood at 87%; in [14] it was 75%. Besides, the remaining at 1 h, 10 µM in data set [12] came to 73%; in data set [15], 57%. The compound further yielded a kinetic solubility in [16] of 257 µM (≈ 89 µg/mL). Besides, the Cmax in data set [17] is 2040 ng/mL; in data set [21] it was 134 nM. The compound also showed an AUC(0-t) in data set [18] of 1580 ng·h/mL. The AUC(0-inf) in data set [19] was 1600 ng·h/mL. For the same compound, the half-life in data set [20] was 18 min.
On to `CCN(CC)c1ccc(C(=O)NCCn2c(C)cc3ccccc32)cc1`, for which the Kb in [1] was 0.0027 µM; in [2], 31.3 µM; in data set [4], 3.19 µM; in data set [6], 8 µM; in data set [9], 0.0175 µM. Further, the Ratio in the data set listed under Homo sapiens [3] stood at 11600; in the data set filed under Homo sapiens [5] it was 1220; in the data set filed under Homo sapiens [7] it was 2960. This compound also registered a CC50 with C6 of 320 µM. The selectivity ratio in the data set with EP2 receptor is 119000. Besides, the values for the remaining at […], 10 µM in data set [10] and in [13] were 19% and less than 14%, respectively. The remaining at 0.5 h, 10 µM in data set [11] and in data set [14] was 9% throughout. The remaining at 1 h, 10 µM in data set [12] is 4%; in data set [15], 3%. The compound further registered a kinetic solubility in [16] of less than 25 µM.
